Test results taken from a melting point compilation (Tetko et al.; mined from patent text by program, amines drawn as free bases though some values may be those of a salt).

`Cc1ccc(S(=O)(=O)Nc2cc(C(C)(C)C)c(O)c(C(C)(C)C)c2)cc1` gave a melting point of 160 to 180 °C.
Compound `CCCCc1nc(C)c(CC(=S)N(C)C)c(=O)n1Cc1ccc(-c2ccccc2-c2nnn[nH]2)cc1` has a melting point of 96.8 to 102 °C.
Work on `Cc1cccc(-c2csc(N3C(=O)c4ccccc4C3=O)c2C(=O)O)c1` yielded a melting point of 195 °C.
For `N#Cc1ccc(-c2nccc3[nH]c(=O)ccc23)cc1`, the melting point was over 300 °C.
With `O=Cc1c2c(cc3ccccc13)Cc1ccccc1-2` the melting point was 104 to 106 °C.
`CCOC(=O)c1cc(C)n(-c2cccc(C)c2)c1-c1ccccc1` showed a melting point of 92.5 to 94 °C.
With `Cc1ccncc1-c1cc2ccncc2c(N)n1` the melting point was 280 to 282 °C.
`COCC1CN(c2ccc(C3CCC(=C(C)C)CC3)cc2)C(=O)O1` (racemic) gave a melting point of 89 to 91 °C.
`Nc1nnc(C(F)(F)F)c2c1cc1cccc(CCCN3CC4CCC(CC4)C3)n12` showed a melting point of 252 to 253 °C.
`Cc1nc(-c2cc3c(OC[C@@H](O)CN4CCC(c5ccc6ccccc6c5)CC4)cccc3o2)no1` showed a melting point of 146 to 148 °C.
Work on `Cc1oc(-c2ccccc2)nc1CCOc1ccc(CCc2nnn[nH]2)cc1` yielded a melting point of 143 to 144 °C.
With `CC1CC(=O)NN=C1c1ccc(NC(=O)OCc2cccc(Cl)c2)cc1` (configuration not stated) the melting point was 165 to 166 °C.
Compound `CCc1nc2c(cnn2CC)c(NC2CCOCC2)c1CNC(=O)c1cccc(C(=O)NCc2ccc(OC)c(Br)c2)c1` has a melting point of 130 to 132 °C.
`Cc1sc2c(Br)c3ccccc3c(-c3ccc(O)c([N+](=O)[O-])c3)c2c1C` showed a melting point of 183 to 185 °C.
Compound `CCOC(=O)C(=CNc1nccs1)C(=O)c1ccc(Cl)nc1Cl` has a melting point of 119 to 122 °C.
In the case of `CCCCCNC(=O)Nc1ccc(N(C)C)cc1C(=O)NCC1CCN(C(c2ccccc2)c2ccccc2)CC1`, the melting point is reported as 218 °C.
For `COc1cc2ncc(C#N)c(Nc3ccc(F)c(Cl)c3)c2cc1NC(=O)C=CCN1CCSC1`, the melting point was 135 to 138 °C.
`C=C(C)[C@H]1CC[C@@](C)(O)[C@H](NC23CC4CC(CC(C4)C2)C3)C1` gave a melting point of 94 to 96 °C.
For `CC(C)c1nn(-c2ccc(C(F)(F)F)cn2)cc1CCCOc1cc(CCC(=O)O)n(C2CCCCC2)n1`, the melting point was 166 to 167 °C.
For `CCC1(O)CC(=O)OCc2c1cc1n(c2=O)Cc2c-1nc1ccc(Cl)cc1c2-c1ccccc1F` (configuration not stated), the melting point was over 250 °C.
With `Cc1cc(Cl)ccc1N=c1scc(-c2ccc(Cl)c(S(=O)(=O)N(C)C)c2)n1C` the melting point was 137 to 141 °C.
`CN(CCO)Cc1cc(C(=O)c2ccccc2F)cc(C(C)(C)C)c1O` gave a melting point of 87 to 89 °C.
`COc1ccccc1-n1c(=O)[nH]c2c(C(N)=O)nc(-c3ccc4[nH]c(SC)nc4c3)nc21` showed a melting point of 244 to 245 °C.
For `CC(=O)OC1CC2(C)C(CCC23OCCO3)C2CC=C3CC(O)CCC3(C)C12` (configuration not stated), the melting point was 125 to 126 °C.
For `COc1ccc(-c2cc(-c3ccc(-c4c(Cc5ccccc5)oc5ccccc45)cc3)ccc2OC(Cc2ccccc2)C(=O)O)cc1` (configuration not stated), the melting point was 73 to 75 °C.
Work on `CC(=O)NC[C@H]1CN(c2ccc3c(c2)CCSc2cn[nH]c2-3)C(=O)O1` yielded a melting point of 186 to 187 °C.
For `CN1C(=O)CC(c2c[nH]c3ccc(Br)cc23)C1=O` (configuration not stated), the melting point was 194 to 195 °C.
For `Fc1ccc(Nc2ncnc3cnc(N4CCC(CCCC5CCNCC5)CC4)nc23)cc1Cl`, the melting point was 128 to 130 °C.
In the case of `COc1cc(N)ccc1C(O)c1cc(C)ccn1` (configuration not stated), the melting point is reported as 114 to 117 °C.
For `Cc1cccc(C(C(O)C(C)(C)C)n2ccnc2)c1` (configuration not stated), the melting point was 126 °C.
In the case of `Clc1ccc2[nH]c3c(c2c1)CN(CCCCc1ccncc1)CC3`, the melting point is reported as 227 to 228 °C.
`CC(=O)Nc1cc(C(F)(F)F)ccc1S(=O)(=O)CC#N` gave a melting point of 146 to 147 °C.
Work on `O=C1c2ccccc2C(=O)c2c1nc1ccc(Cl)cn21` yielded a melting point of over 300 °C.
`CN(C)Cc1ccc2cc(-c3nnc(CSCCOc4ccccc4)o3)ccc2c1` gave a melting point of 95 to 96 °C.
`CCOC(=O)c1sc2[nH]c(=O)c(=O)[nH]c2c1CC` showed a melting point of over 300 °C.
`CN(c1ccc(Br)cc1)S(=O)(=O)c1cccc(C(=O)Nc2ccc(F)cc2F)c1` gave a melting point of 119 to 120 °C.
In the case of `COC(=O)c1ccc2c(c1)Nc1nccnc1S2`, the melting point is reported as 265 to 268 °C.
For `Cc1cc(C)c(Oc2nc(C)nc(Cl)c2Cl)c(C)c1`, the melting point was 68 to 70 °C.
With `c1ccc(C(c2ccccc2)N2CCN(CCCCn3cccc3)CC2)cc1` the melting point was 80 to 84 °C.
`CC(=O)OC1C=CC2(C)C(=CCC3C2CCC2(C)C3CCC23OCCO3)C1` (configuration not stated) gave a melting point of 105 to 106 °C.
`COc1cc(N2CCN(C)CC2)ccc1-c1nc2c(N[C@H]3[C@@H](C(N)=O)[C@@H]4C=C[C@H]3C4)c(Br)cnc2[nH]1` gave a melting point of 185 to 195 °C.
`CCC1(c2ccnc(OC)c2CO)OCCCO1` showed a melting point of 79 °C.
For `NC(=O)c1nc(-c2cccc(O)c2)nc2c1[nH]c(=O)n2[C@H]1CC[C@H](N)CC1`, the melting point was 299 to 301 °C.
For `CCOc1ccc2c(c1)CC2C#N` (configuration not stated), the melting point was 50 to 52 °C.
In the case of `O=C(NC1CCC(c2cc(Nc3cccc(C(F)(F)F)c3)n[nH]2)C1)C1CCCCC1` (configuration not stated), the melting point is reported as 163 °C.
Work on `CN1C(=O)Nc2ccccc2C1(O)C(=O)NC(N)=O` (configuration not stated) yielded a melting point of over 280 °C.
Work on `Cc1c2c(c(C=O)c(C(C)C)c1OCc1ccccc1)OC(C)(C)C2` yielded a melting point of 107 to 108 °C.
With `CCN(CC)CCOc1ccc2cc3ccc(OCCN(CC)CC)c(Cl)c3nc2c1Cl` the melting point was 83 to 84 °C.
Work on `CC(N)(C(N)=O)C(F)F` (configuration not stated) yielded a melting point of 77 to 80 °C.
For `NNC(=O)c1cccc(-c2csc(N=C(N)N)n2)n1`, the melting point was 233 to 234 °C.
With `COc1ccc(CC2CNC(=O)N2)cc1O` (configuration not stated) the melting point was 192 to 202 °C.
For `CC1C(Cl)(Cl)C1(C)C(=O)C(N)=O` (configuration not stated), the melting point was 87 to 89 °C.
Compound `CCCCc1c(/C=C/C(=O)Oc2ccc([N+](=O)[O-])cc2)ccc2ccc(OC)cc12` has a melting point of 114 to 115 °C.
In the case of `CC1(C(=O)Nc2ccc(C3=NNC(=O)C4CC34)cc2)CC1` (configuration not stated), the melting point is reported as 253 to 255 °C.
Work on `COc1cc(C)nc(NC(=O)NS(=O)(=O)c2ccccc2C(=O)Nc2nncs2)n1` yielded a melting point of 172 to 173 °C.
In the case of `O=C(OCC(Cl)(Cl)Cl)N1CCC(=C2c3ccccc3Oc3ccccc32)CC1`, the melting point is reported as 132 to 134 °C.
Compound `COC1CCCNC(=O)C1` (configuration not stated) has a melting point of 70 to 73 °C.
`O=c1[nH]c(N2CCN(CCCCN3CCCCC3)CC2)cc2c(Cl)cccc12` showed a melting point of 172 to 173 °C.
`CCOC(=O)c1cn(Cc2ccc(-c3ccccc3-c3nnnn3C(c3ccccc3)(c3ccccc3)c3ccccc3)cc2)c2sc(CC)cc2c1=O` showed a melting point of 195 to 198 °C.
Compound `Cc1ccc(-c2ccc3c(c2)C=C(C(=O)Nc2ccc(CNc4ccccc4)cc2)CCO3)cc1` has a melting point of 157 to 158 °C.
`CS(=O)(=O)c1c(C(=O)O)ccc(Cl)c1Oc1ccccc1` showed a melting point of 231 to 235 °C.
`C1=CC2OC1c1cc3c(cc12)OCO3` showed a melting point of 111 to 112 °C.
`CNC(=S)NCC1=C(n2ccccc2=O)c2cc([N+](=O)[O-])ccc2OC1(C)C` gave a melting point of 225 °C.
With `C[C@H]1N(C(=O)c2ccc(C(F)(F)F)cc2)CC(=O)O[C@@]1(Cn1cncn1)c1ccc(C(F)(F)F)cc1` (relative stereo) the melting point was 189 to 190 °C.
For `CN(C(=O)OC(C)(C)C)c1cc(OCc2ccccc2)ccc1[N+](=O)[O-]`, the melting point was 108 to 110 °C.
In the case of `CS(=O)(=O)Nc1ccc(-n2nc(C(F)(F)F)nc2-c2ccc(S(C)(=O)=O)cc2)cc1`, the melting point is reported as 188 °C.
For `CNS(=O)(=O)c1ccccc1C`, the melting point was 62 to 64 °C.
`CS(=O)(=O)Nc1cc(C(O)CNCCCCCCOCCC2CCCCC2)ccc1O` (configuration not stated) showed a melting point of 99 to 101 °C.
`Cc1oc2cc(CCl)ccc2c1C` showed a melting point of 63 to 65 °C.
Work on `Cc1ccc(-c2ccc(NN)nn2)c(OCC(O)CNC(C)(C)C)c1` (configuration not stated) yielded a melting point of 145 to 155 °C.
Work on `CS(=O)(=O)c1ccc(-n2cc(-c3ccc(F)cc3)nc2-c2ccccn2)cc1` yielded a melting point of 88 to 91 °C.
`CC(C)C(=O)N(O)C(C)c1cc2ccccc2s1` (configuration not stated) gave a melting point of 132 to 138 °C.
`N#CC(Cl)CC(Cl)(Cl)C=O` (configuration not stated) showed a melting point of 49 to 50 °C.
`CCOC(=O)c1ccn2ncc(-c3cccc(Cl)c3)c2n1` gave a melting point of 126 to 129 °C.
`Cc1ccc(S(=O)(=O)ON=C(CCN2C(=O)c3ccccc3C2=O)n2nc(C(C)(C)C)cc2N)cc1` showed a melting point of 80 to 82 °C.
With `CC(C)c1cccc(C(C)C)c1NC(=O)NCC1(c2ccc(N(C)C)cc2)O[C@H](C)[C@@H](C)O1` the melting point was 165 to 167 °C.
`CC1CCN(C(=O)C(Cc2cc3c(N)nccc3s2)NS(=O)(=O)c2ccc(OC3CCOCC3)cc2)CC1` (configuration not stated) showed a melting point of 127 to 129 °C.
With `CCCCCCNCCCS(=O)(=O)O` the melting point was 144 to 147 °C.
Compound `COc1cc2c(Nc3ccc(Br)cc3F)ncnc2cc1OCCCS(C)(=O)=O` has a melting point of over 250 °C.
`COC(=O)c1ccc(Cn2c(C)cn(C3CCc4ccccc4C3)c2=S)cc1` (configuration not stated) showed a melting point of 140 to 141 °C.
`COC(=O)C1=C(C)NC(=O)N(C)C1c1cccc([N+](=O)[O-])c1` (configuration not stated) showed a melting point of 217 to 219 °C.
For `CCCc1nnc(N2CCN(c3ccc(N4CC(CNC(C)=O)OC4=O)cc3F)CC2)s1` (configuration not stated), the melting point was 208 to 209 °C.
Compound `Nc1ccc2nc(N)sc2c1` has a melting point of 202 to 203 °C.
With `CCOC(=O)c1c(C(=O)C(=O)OC)c2cc(Cl)ccc2n1C` the melting point was 119 to 120 °C.
For `CCNC(=O)c1c([Si](C)(C)C)ccc(/C=C/[N+](=O)[O-])c1Cl`, the melting point was 104 to 106 °C.
With `O=C(O)COc1ccc2sc3ccccc3c(=O)c2c1` the melting point was 207 to 212 °C.
Work on `COc1ccc(/C=C(\C#N)c2ccc([N+](=O)[O-])cc2)cc1OC1CCCC1` yielded a melting point of 186 to 187 °C.
With `O=C1Cc2cc(NC(=O)C(=O)N3CCC(Oc4ccc(Cl)cc4)CC3)ccc2N1` the melting point was 194 to 196 °C.
Compound `CCOC(=O)c1ccc(NC(=O)c2ccncc2)cc1` has a melting point of 143 to 145 °C.
`Nc1ccc(CNC(=O)C2Cc3ccccc3N2S(=O)(=O)c2ccc(-c3cccc(C(F)(F)F)c3)cc2)cc1` (configuration not stated) gave a melting point of 84 °C.
`CCOC(=O)c1nn(-c2ccc([N+](=O)[O-])cc2)c2c1CCCC2` gave a melting point of 173 °C.
`COC(=O)CCC(=O)c1ccc(Cl)c(S(N)(=O)=O)c1` showed a melting point of 113 to 115 °C.
For `CCOCCOc1ccc(CCNC(=O)/C=C/c2cccs2)cc1S(=O)(=O)NC(=S)NC`, the melting point was 51 °C.
Compound `Cc1ccc(-c2ccc(O)cc2)c(-c2ccc(OCCN3CCCCC3)cc2)n1` has a melting point of 90 to 100 °C.
Work on `O=[N+]([O-])c1ccc(C=Cc2ccc(OCC(O)CO)cc2)cc1` (configuration not stated) yielded a melting point of 147 °C.
In the case of `Cc1nc(-n2ccc(C(F)(F)F)cc2=O)sc1C(=O)NCc1cccnc1`, the melting point is reported as 172 to 173 °C.
`COC(=O)[C@H](CC(=O)OC(C)(C)C)NC(=O)c1cccc(NC(=O)c2ccc(C#N)cc2)c1` gave a melting point of 83 to 84 °C.
